Tested on: KRAS PDC tumor spheroids (HUVEC+MSC), viability
Test: Anticancer human tumor 254851-301-R-J1-PDC patient-derived colon carcinoma cell line growth inhibition [KRAS2]
Settings: for IC50: curve of first compound; for viability, T/C: stronger effect = lower value
Method in brief: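 KRAS-mutant tumor cells were grown as spheroids with HUVEC endothelial cells and human MSCs as stroma. Targeted agents were tested alone and with KRAS pathway inhibitors. Doses started at or near clinical Cmax, or 10 microM, descending half-log.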

[1] = second compound 0.0316 µM, first compound 0.0316 µM
[2] = second compound 0.0316 µM, first compound 0.1 µM
[3] = second compound 0.0316 µM, first compound 0.316 µM
[4] = second compound 0.0316 µM, first compound 1 µM
[5] = second compound 0.0316 µM, first compound 3.16 µM
[6] = second compound 0.1 µM, first compound 0.0316 µM
[7] = second compound 0.1 µM, first compound 0.1 µM
[8] = second compound 0.1 µM, first compound 0.316 µM
[9] = second compound 0.1 µM, first compound 1 µM
[10] = second compound 0.1 µM, first compound 3.16 µM
[11] = second compound 0.316 µM, first compound 0.0316 µM
[12] = second compound 0.316 µM, first compound 0.1 µM
[13] = second compound 0.316 µM, first compound 0.316 µM
[14] = second compound 0.316 µM, first compound 1 µM
[15] = second compound 0.316 µM, first compound 3.16 µM
[16] = second compound 1 µM, first compound 0.0316 µM
[17] = second compound 1 µM, first compound 0.1 µM
[18] = second compound 1 µM, first compound 0.316 µM
[19] = second compound 1 µM, first compound 1 µM
[20] = second compound 1 µM, first compound 3.16 µM
[21] = second compound 3.16 µM, first compound 0.0316 µM
[22] = second compound 3.16 µM, first compound 0.1 µM
[23] = second compound 3.16 µM, first compound 0.316 µM
[24] = second compound 3.16 µM, first compound 1 µM
[25] = second compound 3.16 µM, first compound 3.16 µM
[26] = second compound 0.0316 µM, first compound 10 µM
[27] = second compound 0.1 µM, first compound 10 µM
[28] = second compound 0.316 µM, first compound 10 µM
[29] = second compound 1 µM, first compound 10 µM
[30] = second compound 3.16 µM, first compound 10 µM
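Further: spheroids exposed to compounds for seven days before readout.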
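Wherever viability, T/C is given: 100% = DMSO vehicle control luminescence of the spheroids.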

| SMILES | IC50 (second compound 0.0316 µM) | IC50 (second compound 0.1 µM) | IC50 (second compound 0.316 µM) | IC50 (second compound 1 µM) | IC50 (second compound 3.16 µM) | viability, T/C [1] | viability, T/C [2] | viability, T/C [3] | viability, T/C [4] | viability, T/C [5] | viability, T/C [6] | viability, T/C [7] | viability, T/C [8] | viability, T/C [9] | viability, T/C [10] | viability, T/C [11] | viability, T/C [12] | viability, T/C [13] | viability, T/C [14] | viability, T/C [15] | further results |
| --- | --- | --- | --- | --- | --- | --- | --- | --- | --- | --- | --- | --- | --- | --- | --- | --- | --- | --- | --- | --- | --- |
| CC1COCCN1c1cc(-c2ccnn2C)c2ccnc(-c3ccn[nH]3)c2n1 (stereo not given) + C=CC(=O)N1CCN(c2nc(OCC3CCCN3C)nc3c2CCN(c2cccc4cccc(C)c24)C3)CC1CC#N | 0.207 µM | 0.3 µM | 0.187 µM | 0.0826 µM | 0.0238 µM | 88.8% | 62.7% | 40.4% | 32.7% | 20.4% | 95.3% | 64.8% | 50.8% | 34% | 21.4% | 97.1% | 58.8% | 41.9% | 32.3% | 22.5% | viability, T/C (second compound 0.0316 µM, first compound 0.01 µM): 122%; viability, T/C (second compound 0.1 µM, first compound 0.01 µM): 101%; viability, T/C (second compound 0.316 µM, first compound 0.01 µM): 105%; viability, T/C (second compound 1 µM, first compound 0.01 µM): 59.4%; viability, T/C [16]: 53%; viability, T/C [17]: 48.8%; viability, T/C [18]: 26.3%; viability, T/C [19]: 26.5%; viability, T/C [20]: 39.7%; viability, T/C (second compound 3.16 µM, first compound 0.01 µM): 57.6%; viability, T/C [21]: 47.1%; viability, T/C [22]: 32.8%; viability, T/C [23]: 23.3%; viability, T/C [24]: 18.8%; viability, T/C [25]: 23.8% |
| CC1OCC2(CCN(c3cnc(Sc4ccnc(N)c4Cl)c(N)n3)CC2)C1N (stereo not given) + C=CC(=O)N1CCN(c2nc(OCC3CCCN3C)nc3c2CCN(c2cccc4cccc(C)c24)C3)CC1CC#N | > 10 µM | > 10 µM | > 10 µM | > 10 µM | > 10 µM | 101% | 99.7% | 102% | 85.4% | 77.2% | 115% | 107% | 89.3% | 85.3% | 77.1% | 89.8% | 95.6% | 93.4% | 84.7% | 83.4% | viability, T/C [26]: 75.3%; viability, T/C [27]: 83%; viability, T/C [28]: 72.8%; viability, T/C [16]: 59.1%; viability, T/C [17]: 68.1%; viability, T/C [18]: 65.3%; viability, T/C [19]: 69%; viability, T/C [20]: 66.2%; viability, T/C [29]: 64.8%; viability, T/C [21]: 60.1%; viability, T/C [22]: 58.7%; viability, T/C [23]: 59.4%; viability, T/C [24]: 68.5%; viability, T/C [25]: 60.6%; viability, T/C [30]: 58.9% |
| Cn1nccc1Nc1nccc(-c2cc3c(s2)C(C)(C)N(CCN2CCOCC2)C3=O)n1 + C=CC(=O)N1CCN(c2nc(OCC3CCCN3C)nc3c2CCN(c2cccc4cccc(C)c24)C3)CC1CC#N | 2.32 µM | 3.14 µM | 2.54 µM | 1.66 µM | 1.3 µM | 99.1% | 112% | 89.8% | 82% | 38.4% | 89.9% | 89.9% | 95.3% | 94.1% | 49.8% | 112% | 92.3% | 91.2% | 75.9% | 43% | viability, T/C [26]: 4.17%; viability, T/C [27]: 3.82%; viability, T/C [28]: 3.62%; viability, T/C [16]: 71.3%; viability, T/C [17]: 74.5%; viability, T/C [18]: 68.6%; viability, T/C [19]: 66.7%; viability, T/C [20]: 29.3%; viability, T/C [29]: 2.36%; viability, T/C [21]: 81.9%; viability, T/C [22]: 74.3%; viability, T/C [23]: 63%; viability, T/C [24]: 62.4%; viability, T/C [25]: 11.8%; viability, T/C [30]: 0.25% |

Source: PubChem BioAssay AID1963868 (Molecular Pharmacology Branch, DTP, NCI, 2024)
